As usually defined, the LD50 is the dose at which mortality reaches 50%. Read a high LD50 as lower toxicity.

This note sets out measurements from patent EP0525686A1, “Dimethylacetylacetic acid amides, process for their preparation and pharmaceutical compositions” (LUITPOLD PHARMA GmbH, priority 1991, dated 1993).

Data set [1] relates to Carrageenin-Lösung erzeugte Ödeme der rechten Hinterpfote. Description: Carrageenan-induced paw oedema test for anti-inflammatory activity. Type of data set: in vivo, Wistar-Ratten. The note with it: 200 mg/kg p.o., 30 min before carrageenan; paw volume 3 h after injection; female Wistar rats, n=10. From the text:
Die Prüfung auf antientzündliche Wirkung (C. A. Winter, E. A. Risley, G. W. Nuss; Proc. Soc. Exp. Biol. Med. 111, 544 (1962)) erfolgte durch mit 0.5 %iger wäßriger Carrageenin-Lösung erzeugte Ödeme der rechten Hinterpfote an Gruppen mit je zehn nüchternen, ca. 150 g schweren weiblichen Wistar-Ratten. Dazu wurden mit einem Plethysmometer die Volumina der markierten rechten Hinterpfote unmittelbar vor und drei Stunden nach der Injektion der Carrageenin-Lösung gemessen. Die zu prüfenden Substanzen wurden 30 Minuten vor Erzeugung des Ödems als Gummi arabicum Suspension mittels einer Schlundsonde p.o. verabreicht. Die Kontrollgruppe erhielt reines Leitungswasser. Die Einzeldosis pro Tier lag bei 200 mg/kg Körpergewicht.
Zur Auswertung wurde die prozentuale Zunahme des Pfotenvolumens für jedes Tier nach folgender Formel berechnet: [formula] dann wurden Mittelwerte und Streuung für alle so berechneten Werte einer Gruppe bestimmt. Der Unterschied zwischen der mit Prüfsubstanz behandelten Versuchs- und der zugehörigen unbehandelten Gruppe wurde nach der Formel [formula] ermittelt. Die statistische Auswertung erfolgte nach den üblichen Verfahren.
For orientation: Carrageenan injected into the paw causes an acute inflammation.

Data set [2] is described as follows: Acute toxicity (LD50), tolerability. The note with it: in vivo; species and route not given. The method, then:
Im Zusammenhang mit der vorliegenden Erfindung wurde überraschend gefunden, daß Substanzen der allgemeinen Formel I wertvolle pharmakologische Eigenschaften aufweisen und insbesondere als antientzündliche Wirkstoffe eingesetzt werden können. Neben der guten Verträglichkeit - die LD50 der Verbindung aus Beispiel 1 liegt beispielsweise bei über 1000 mg/kg - zeichnen sich Verbindungen der allgemeinen Formel I durch nützliche analgetische und antipyretische Eigenschaften aus. Insbesondere eignen sich die erfindungsgemäßen Verbindungen zur Behandlung entzündlicher Erkrankungen bei Mensch und Tier. Die Krankheitsbilder, die mit den erfindungsgemäßen Verbindungen behandelt werden können, umfassen alle entzündlichen Zustände, wie zum Beispiel Entzündungen der Haut wie Radiodermatitis, Psoriasis, Akne, Ekzeme, Entzündungen am Auge wie zum Beispiel Conjunktivitis, Entzündungen im Hals-Nasen-Ohren-Bereichwie zum Beispiel katarralische Infektionen der oberen Luftwege und Sinusitis, entzündliche Erkrankungen des Gefäßsystems wie Thrombophlebitis oder Vaskulitis und Entzündungen des Nervensystems wie zum Beispiel Neuralgien oder Neuritiden. Bevorzugt zu behandelnde entzündliche Erkrankungen sind Entzündungen im Bereich des Bewegungsapparates wie Arthritiden, Arthrose, Tendinitis, Tendopathien, Kontusionen und Distorsionen, Weichteilrheumatismus, Gicht und Lumbalgien. […]

As to `COc1ccccc1NC(=O)CC(=O)C(C)C` [Beispiel 1, N-(2-Methoxyphenyl) 4-methylpentan-3-on-säureamid], the “% Hemmung” value in data set [1] is 52%. Also, the LD50 in data set [2] is over 1000 mg/kg.
Regarding `CC(C)C(=O)CC(=O)Nc1nccs1` [Beispiel 2, N-(2-Thiazolyl)-4-methylpentan-3-on-säureamid], the “% Hemmung” value in data set [1] was found to be 32%.
As for `COc1ccc(NC(=O)CC(=O)C(C)C)cc1` [Beispiel 3, N-(4-Methoxyphenyl)-4-methylpentan-3-on-säureamid], the “% Hemmung” value in data set [1] was determined as 27%.
As to `COc1ccc(C)cc1NC(=O)CC(=O)C(C)C` [Beispiel 4, N-(2-Methoxy-5-methylphenyl)-4-methylpentan-3-on-säureamid], the “% Hemmung” value in data set [1] came to 26%.
